# From patent US20110046040A1, “Microorganism-inactivating agent” (CHISSO CORPORATION, priority 2009, published 2011)
# What was measured:
# Assay in all cases: inactivation of microorganisms in water, number of cells in supernatant
# Assay type in all cases: cell-based
# Pseudomonas aeruginosa = details: 10 ppm; pH 8; initial 2.0 × 10^5
# Experimental: (§1) Each test microbe was inoculated to nutrient broth and cultured with shaking at the optimum temperature of the test microbe until the late logarithmic phase. From the microbe culture, the microbe was collected, and the collected microbe was washed with 1.5 mL of physiological saline 2 to 3 times (centrifugation at 13000 rpm for 1 minute) and suspended in 1.5 mL of physiological saline. From the suspension, a 1 mL aliquot was recovered, and this was added to 9 mL of sterile water, followed by sufficient stirring of the resulting suspension (this was used as 10^−1 dilution). From the 10^−1 dilution, 10^−2 to 10^−8 dilutions were sequentially prepared. Each dilution was smeared on a film medium (Sanita-kun; for E. coli and coliform bacteria, for Staphylococcus aureus, for Salmonella, for aerobic bacteria or for fungi: Chisso Corporation) in an amount of 1 mL, followed by culturing at the optimum temperature of the test microbe for 24 to 72 hours and measurement of the number of cells on the film medium.
# (§2) To a sterilized beaker, 500 mL of sterilized water was placed, and 0.20 mL of microbe culture of 10^6 to 10^10 cells/mL was inoculated thereto, to attain an initial cell number of 10^3 to 10^7 cells/mL. Unless otherwise specified, the pH was 6 to 8. After stirring the suspension gently for 5 minutes, PGα21Ca (Nippon Poly-Glu Co., Ltd.) and/or a microbiostatic agent or microbicide was/were added thereto such that a predetermined final concentration(s) was/were attained. After gentle stirring at room temperature for 10 to 15 minutes, the suspension was left to stand for a predetermined length of time. The supernatant was collected and diluted appropriately in an antimicrobial agent-inactivating medium (BHI medium or the like), and 1 mL each of the resulting diluent was smeared on a film medium. Culturing was carried out at the optimum temperature of each test microbe for 24 to 72 hours and the number of cells (cells/mL) on the film medium was measured.
# Bacillus subtilis = details: 10 ppm; pH 8; initial 6.0 × 10^4
# Experimental: as §1, §2
# Salmonella choleraesuis = details: 10 ppm; pH 8; initial 4.7 × 10^4
# Experimental: as §1, §2
# Bacillus cereus = details: 10 ppm; pH 8; initial 9.5 × 10^4
# Experimental: as §1, §2
# Klebsiella pneumoniae = details: 10 ppm; pH 8; initial 1.3 × 10^5
# Experimental: as §1, §2
# Listeria monocytogenes = details: 10 ppm; pH 8; initial 2.0 × 10^4
# Experimental: as §1, §2
# Staphylococcus aureus = details: 10 ppm; pH 8; initial 4.3 × 10^4
# Experimental: as §1, §2
# Escherichia coli = details: 10 ppm; pH 8; initial 5.8 × 10^4
# Experimental: as §1, §2
substance,measurement,setting,value
protamine sulfate,number of cells 2 hours later,Pseudomonas aeruginosa,<10 cells/mL
same,number of cells 2 hours later,Bacillus subtilis,10 cells/mL
same,number of cells 2 hours later,Salmonella choleraesuis,<10 cells/mL
same,number of cells 2 hours later,Bacillus cereus,300 cells/mL
same,number of cells 2 hours later,Klebsiella pneumoniae,10 cells/mL
same,number of cells 2 hours later,Listeria monocytogenes,<10 cells/mL
same,number of cells 2 hours later,Staphylococcus aureus,<10 cells/mL
same,number of cells 2 hours later,Escherichia coli,<10 cells/mL
